Data from patent US20210163404A1, “NOVEL UREA COMPOUNDS AND BIOISOSTERES THEREOF AND THEIR USE FOR TREATING INFLAMMATION AND INFLAMMATION-RELATED PATHOLOGIES” (UNIVERSITÉ LAVAL, priority 2017, published 2021).
“And” between values parts separate entries of the source, which are not always exact repeats. Identical values can stand only once. Like-named read-outs stand apart in the source and are kept apart here.

What was measured:
IL-6 [1] = assay: IL-6 expression in HaCaT cells stimulated with IL-17A and TNFα (ELISA); format: cell-based, human; details: for Expression of IL-6, HaCaT: 10 μM solutions, HaCaT stimulated with IL-17A and TNFα, mean of five experiments in duplicate; for inhibitory effect on IL-6 expression in HaCaT cells: 10 μM, stimulated with IL-17A and TNFα; for inhibitory effect on IL-6 expression in HaCaT cells / effect on the expression of IL-6 by HaCaT cells: in words; for effect on the expression of IL-6 by HaCaT cells: HaCaT cells treated with IL-17 and TNFα
Source text: The effect of compounds 3a-b, 4a-e, 5a-e and 6a-e on the expression of IL-6 was subsequently assessed using the HaCaT spontaneously transformed aneuploid immortal keratinocyte cell line, stimulated by the addition of IL-17A and TNFα in the culture medium (Table 1). Curcumin and ibuprofen were used as known IL-6 expression inhibitors. DMSO was used for solubilizing the drugs. […] Indeed, the inhibitory effect of these molecules was at least equivalent to that of curcumin [27] and ibuprofen, both recognized as anti-inflammatory drugs. The inhibitory effect of the substituted phenyl cycloalkylureas in accordance with an embodiment of the present disclosure on proinflammatory cytokines was also found at the mRNA level. Indeed, the mRNAs of the cytokines IL-6 and TNF-α as well as the mRNA of the chemokine IL-8 were lowered in TNF-α/IL-17A-stimulated HaCaT cells. Similar results were obtained in THP-1 cells stimulated with LPS where treatments with CHEU and 4e diminished the mRNA levels of the cytokines IL-1B, IL-6 and TNF-α in addition to the mRNA levels of the chemokine IL-8. It is surmised that the anti-inflammatory mechanism of action of the compounds of the present disclosure is likely mediated, at least in part, by modulating the phosphorylation state of the MAP kinase p38. […] Addition of a compound in accordance with an embodiment of the present disclosure, prior to stimulation with the aforementioned cytokines, decreases the level of p-p38 at 30-60 minutes post-stimulation. This diminution in p-p38 levels destabilizes the mRNAs of pro-inflammatory cytokines, non-limiting examples of which include TNF-α and IL-6. Moreover, it is surmised that the effect of the compounds of the present disclosure on p-p38 is potentially mediated by the activation of the phosphatase named DUSP1.
HaCaT cells (1×10^5) were suspended in DMEM culture media (500 μL) and incubated for 24 h in 24-well microtiter plates at 37° C. in a moisture-saturated atmosphere containing 5% CO2. Compounds were solubilized in DMSO and diluted in fresh DMEM. The compound (500 μL) was then added to the cell medium to obtain a final concentration of […] and the cells incubated over a period of 1 hour. In the meantime, IL-17α (200 ng/mL) and TNFα (20 ng/mL) (PeproTech, Rocky Hill, N.J.) were added to the drug solution in DMEM. Following the initial incubation of the cells, the culture medium was aspirated from each well and the IL-17α+ TNFα+ compound solution was added to each well for incubation (6 hours). The culture media was then removed and transferred to a clean tube (1.5 mL) at −80° C. until the ELISA test was performed. The presence of IL-6 in the cell media was determined using an IL-6 human Duoset ELISA kit (Fisher Scientific, Ottawa, On.) according to the manufacturer's instructions. Standards and samples were prepared and assessed in duplicate. Two separate replicates were performed for each sample. The absorbance was measured at 450 nm and 540 nm using a TECAN infinite M1000 plate reader.

[2] = test system: HaCaT keratinocyte cell line; assay: Antiproliferative activity (NCI procedure, sulforhodamine B), HaCaT; format: cell-based, human; details: 48 h; for GI50: Table 2; for IC50: Table 6, unit inferred, tested 781 nM to 100 μM
Method in brief: (§1)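 Cells seeded in DMEM, grown 24 h at 37 °C, then exposed 48 h to serial dilutions from 100 μM to 781 nM (DMSO <0.5%). TCA fixation, sulforhodamine B staining, absorbance at 530-568 nm; growth inhibition relative to plates fixed on treatment day. At least two experiments in triplicate.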

[3] = test system: HDFn neonatal dermal fibroblast cell line; assay: Antiproliferative activity (NCI procedure, sulforhodamine B), HDFn; format: cell-based, human; details: 48 h; for GI50: Table 2; for IC50: Table 6, unit inferred, tested 781 nM to 100 μM
Method in brief: as §1

HaCaT cells = assay: Cell cycle analysis by flow cytometry; format: cell-based, human; details: for Cell cycle progression G0-G1 / Cell cycle progression G2-M / Cell cycle progression S: 10 μM, 24 h; for effect on cell cycle progression: in words
Procedure: The effect of compounds 3a-b, 4e, 5b-c, 6a and 6e on cell cycle progression was subsequently assessed using a flow cytometer in accordance with established experimental protocols to evaluate any potential drug toxicity at specific phases of the cell cycle (Table 3).
HaCaT cells (2.5×10^5) were incubated with compounds 3a-b, 4e, 5b-c, 6a and 6e and curcumin (10 μM) over a period of 24 h. The cells were subsequently trypsinized, washed with PBS, resuspended in PBS (250 μL), fixed by the addition of ice-cold EtOH (750 μL) under agitation and stored at −20° C. until analysis. Prior to FACS analysis, cells were washed with PBS and resuspended in PBS (500 μL) containing 4′,6′-diamidino-2-phenylindole (DAPI) (2 μg/mL). The cell cycle was analyzed using an LSR II flow cytometer (BD Biosciences, Franklin Lakes, N.J.).

[4] = test system: A549 adenocarcinoma alveolar epithelial cancer cells; assay: Antiproliferative activity (NCI procedure, sulforhodamine B), A549; format: cell-based, human; details: 48 h; for GI50: Table 2; for IC50: Table 6, unit inferred, tested 781 nM to 100 μM
Method in brief: as §1

[5] = test system: HT-29 colon adenocarcinoma cells; assay: Antiproliferative activity (NCI procedure, sulforhodamine B), HT-29; format: cell-based, human; details: 48 h; for GI50: Table 2; for IC50: Table 6, unit inferred, tested 781 nM to 100 μM
Method in brief: as §1

IL-6 [6] = assay: IL-6 expression in HaCaT cells stimulated with IL-17A and TNFα (ELISA); format: cell-based; details: Homo sapiens, read-out: Reduction IL-6 (%)
cancer cell lines = details: background, refs [4, 5]; in words; cited from earlier work

Compound: O=C(NCC1CCC1)Nc1ccc(I)cc1 [Compound 23, 1-(Cyclobutylmethyl)-3-(4-iodophenyl)urea]
- Expression of IL-6, HaCaT (IL-6 [1]): 33.9 ± 4.3 pg/mL
- inhibitory effect on IL-6 expression in HaCaT cells (IL-6 [1]): significant inhibitory effect
- GI50 ([2]; Homo sapiens, HaCaT): 62 µM
- IC50 ([2]; Homo sapiens, HaCaT): 62 µM
- GI50 ([3]; Homo sapiens, Fibroblast): 74 µM
- IC50 ([3]; Homo sapiens, Fibroblast): 74 µM
- Cell cycle progression G0-G1 (HaCaT cells): 45
- Cell cycle progression G2-M (HaCaT cells): 29.4
- Cell cycle progression S (HaCaT cells): 25.6
- GI50 ([4]; Homo sapiens, A549): 27 µM
- IC50 ([4]; Homo sapiens, A549): 27 µM
- melting point: 159 to 160 °C
- GI50 ([5]; Homo sapiens, HT-29): 29 µM
- IC50 ([5]; Homo sapiens, HT-29): 29 µM

Compound: CC(C)(C)c1ccc(NC(=O)NC2CCCC2)cc1 [Compound 31, 1-(4-(t-Butyl)phenyl)-3-cyclopentylurea]
- Expression of IL-6, HaCaT (IL-6 [1]): 127.5 ± 17.3 pg/mL
- GI50 ([2]; Homo sapiens, HaCaT): > 100 µM
- IC50 ([2]; Homo sapiens, HaCaT): ≥ 100 µM
- GI50 ([3]; Homo sapiens, Fibroblast): > 100 µM
- IC50 ([3]; Homo sapiens, Fibroblast): ≥ 100 µM
- Cell cycle progression G0-G1 (HaCaT cells): 48
- Cell cycle progression G2-M (HaCaT cells): 25.8
- Cell cycle progression S (HaCaT cells): 25.1
- effect on cell cycle progression (HaCaT cells): did not affect the cell cycle progression
- GI50 ([4]; Homo sapiens, A549): 83 µM
- IC50 ([4]; Homo sapiens, A549): 83 µM
- melting point: 218 to 223 °C and 219 to 221 °C
- GI50 ([5]; Homo sapiens, HT-29): > 100 µM
- IC50 ([5]; Homo sapiens, HT-29): ≥ 100 µM

Compound: CC(C)(C)c1cccc(NC(=O)NCC2CCC2)c1 [Compound 47, 1-(3-(t-Butyl)phenyl)-3-(cyclobutylmethyl)urea]
- Expression of IL-6, HaCaT (IL-6 [1]): 47.5 ± 3.3 pg/mL
- inhibitory effect on IL-6 expression in HaCaT cells (IL-6 [1]): significant inhibitory effect
- GI50 ([2]; Homo sapiens, HaCaT): 39 µM
- IC50 ([2]; Homo sapiens, HaCaT): 39 µM
- GI50 ([3]; Homo sapiens, Fibroblast): 21 µM
- IC50 ([3]; Homo sapiens, Fibroblast): 21 µM
- Cell cycle progression G0-G1 (HaCaT cells): 46.1
- Cell cycle progression G2-M (HaCaT cells): 30.4
- Cell cycle progression S (HaCaT cells): 23.5
- GI50 ([4]; Homo sapiens, A549): 37 µM
- IC50 ([4]; Homo sapiens, A549): 37 µM
- melting point: 126 to 127 °C
- GI50 ([5]; Homo sapiens, HT-29): 43 µM
- IC50 ([5]; Homo sapiens, HT-29): 43 µM

Compound: O=C(Nc1ccc(C2CCCCC2)cc1)NC1CCCC1 [Compound 58, 1-(4-Cyclohexylphenyl)-3-cyclopentylurea]
- Expression of IL-6, HaCaT (IL-6 [1]): 50.3 ± 4.7 pg/mL
- inhibitory effect on IL-6 expression in HaCaT cells (IL-6 [1]): significant inhibitory effect
- GI50 ([2]; Homo sapiens, HaCaT): 82 µM
- IC50 ([2]; Homo sapiens, HaCaT): 82 µM
- GI50 ([3]; Homo sapiens, Fibroblast): 56 µM
- IC50 ([3]; Homo sapiens, Fibroblast): 56 µM
- Cell cycle progression G0-G1 (HaCaT cells): 50.1
- Cell cycle progression G2-M (HaCaT cells): 25.2
- Cell cycle progression S (HaCaT cells): 24.7
- effect on cell cycle progression (HaCaT cells): did not affect the cell cycle progression
- GI50 ([4]; Homo sapiens, A549): 11 µM
- IC50 ([4]; Homo sapiens, A549): 11 µM
- melting point: 197 to 199 °C
- GI50 ([5]; Homo sapiens, HT-29): 13 µM
- IC50 ([5]; Homo sapiens, HT-29): 13 µM

Compound: CCNC(=O)Nc1ccc(C(C)(C)C)cc1 [Compound 63, 1-(4-(t-Butyl)phenyl)-3-ethylurea]
- Expression of IL-6, HaCaT (IL-6 [1]): 81.9 ± 10.8 pg/mL
- GI50 ([2]; Homo sapiens, HaCaT): > 100 µM
- IC50 ([2]; Homo sapiens, HaCaT): ≥ 100 µM
- GI50 ([3]; Homo sapiens, Fibroblast): 60 µM
- IC50 ([3]; Homo sapiens, Fibroblast): 60 µM
- Cell cycle progression G0-G1 (HaCaT cells; listed as 3a): 44
- Cell cycle progression G2-M (HaCaT cells; listed as 3a): 31
- Cell cycle progression S (HaCaT cells; listed as 3a): 25.1
- GI50 ([4]; Homo sapiens, A549): 69 µM
- IC50 ([4]; Homo sapiens, A549): 69 µM
- melting point: 136 to 139 °C
- GI50 ([5]; Homo sapiens, HT-29): 75 µM
- IC50 ([5]; Homo sapiens, HT-29): 75 µM

Compound: C[C@@H]1C[C@H]2[C@@H]3CCC4=CC(=O)C=C[C@]4(C)[C@@]3(F)[C@@H](O)C[C@]2(C)[C@@]1(O)C(=O)CO [Dexamethasone]
- inhibition at 1 µM (IL-6 [6]; Table 6, HaCaT stimulated with IL-17A and TNFα): 45.3%
- inhibition at 1 µM (IL-6 [6]; Table 8, HaCaT stimulated with IL-17A and TNFα): 54.5%

Compound: O=C(NCCCl)Nc1ccc(C2CCCCC2)cc1 [cHCEU, 1-(2-chloroethyl)-3-(p-cyclohexylphenyl)urea, reference compound]
- Expression of IL-6, HaCaT (IL-6 [1]): 46.8 ± 8.5 pg/mL
- effect on the expression of IL-6 by HaCaT cells (IL-6 [1]): significant decrease
- GI50 ([2]; Homo sapiens, HaCaT): 27 µM
- GI50 ([3]; Homo sapiens, Fibroblast): 11 µM
- Cell cycle progression G0-G1 (HaCaT cells): 56.5
- Cell cycle progression G2-M (HaCaT cells): 19.1
- Cell cycle progression S (HaCaT cells): 24.4
- GI50 ([4]; Homo sapiens, A549): 12 µM
- antiproliferative activity on numerous cancer cell lines (cancer cell lines): potent antiproliferative activity
- GI50 ([5]; Homo sapiens, HT-29): 15 µM

Compound: CC(C)(C)c1ccc(NC(=O)NCCCl)cc1 [tBCEU, reference compound]
- Expression of IL-6, HaCaT (IL-6 [1]): 130.6 ± 15.6 pg/mL
- effect on the expression of IL-6 by HaCaT cells (IL-6 [1]): significant decrease
- GI50 [2]: 12 µM
- GI50 [3]: 11 µM
- Cell cycle progression G0-G1 (HaCaT cells): 57.3
- Cell cycle progression G2-M (HaCaT cells): 15.6
- Cell cycle progression S (HaCaT cells): 26.8
- effect on cell cycle progression (HaCaT cells): arresting the cell cycle progression in the G2-M phase
- GI50 [4]: 6.9 µM
- antiproliferative activity on numerous cancer cell lines (cancer cell lines): potent antiproliferative activity
- GI50 [5]: 6.5 µM
